In this assay the test system is groundwater microorganisms. Particulars: both DNAPL test sites (MW-12R, RW-1). The text has this: The test sites are located at a property where fractured bedrock has been contaminated with PCE and TCE DNAPL to a depth of approximately 120 feet below ground surface.

For the molecule `CC(=O)O` [acetic acid], the “adaptation of groundwater microorganisms” value (after injection of acetic acid, FIG. 4) is on record as “increased”. Besides, for the setting “fractured bedrock, after vs before injection of acetic acid, FIG. 3”, the “change in biomass of groundwater microorganisms” value was “increased”.

These data come from patent US20030224503A1, “In-situ microorganism generation for treating subsurface DNAPL source zones” (priority 2002, published 2003).
